In patent US8802720B2, “Acylamino-substituted fused cyclopentanecarboxylic acid derivatives and their use as pharmaceuticals” (SANOFI, priority 2008, dated 2014):
pIC50: −log10 of the molar value.

Target: human Edg-2 receptor (LPA1 receptor) (Homo sapiens, UniProt Q92633)
Experiment: Edg-2 receptor inhibition by FLIPR calcium fluorescence measurement (LPA-mediated calcium liberation)
Format: cell-based
Conditions: CHO cells stably overexpressing human Edg-2 receptor; LPA 18:1 100 nM; fluo-4 fluorescence; triplicate; read-out: Inhibitory concentrations IC50 for inhibition of the Edg-2 receptor
Protocol: A) Determination of Edg-2 Receptor Inhibition by Fluorescence Imaging Plate Reader (FLIPR) Measurements
The inhibition of the Edg-2 receptor (LPA1 receptor) by the compounds of the invention was quantified by the inhibitory effect on the LPA-mediated calcium liberation in a cell-based calcium fluorescence assay by use of Chinese hamster ovarian (CHO) cells in which the human Edg-2 receptor was stably overexpressed (FIp-In system, Invitrogen). […] Changes in intracellular calcium were determined by fluorescence measurement with the calcium-sensitive dye fluo-4 (Invitrogen) in a fluorescence imaging plate reader (FLIPR, […]).
CHO cells stably overexpressing the human Edg-2 receptor were seeded (40.000 per well) in black clear-bottomed poly-D-lysine-coated 96 well plates (Becton Dickinson, Biocoat cellware) approximately 18-24 h prior to the experiments. Cells were grown in an incubator at 37° C., 5% carbon dioxide and 95% humidity in cell culture media based on F-12 glutamax media (Gibco, #31765) supplemented with 1% (vol/vol) penicilline/streptomycine (PAN, #P06-07100), 10% (vol/vol) fetal calf serum (FCS, PAA, #A15-151) and hygromycin B (Invitrogen, #10687-010) 300 mg/l (final concentrations).
Prior to the FLIPR experiment, cells were loaded with fluo-4 acetoxymethyl ester (fluo-4 AM, Invitrogen, #F14202) for 60 min in an incubator at 37° C., 5% carbon dioxide and 95% humidity in dye-loading buffer consisting of Hanks' Balanced Salt Solution (HBSS, Invitrogen, #14065049) supplemented with fluo-4 AM at 2 μM (all data given for final concentration), Pluronic® F-127 0.05% (vol/vol) (Invitrogen, #P-3000 MP), HEPES 20 mM (Gibco, #15630), probenecid 2.5 mM (Sigma, #P-8761) and bovine serum albumin 0.05% (BSA, Sigma, #A-6003), adjusted to pH 7.5 with sodium hydroxide. During cell loading, fluo-4 AM is cleaved by intracellular esterase resulting in trapping of the dye fluo-4 within the cells. Loading was terminated by washing of the cells in a cell washer (Tecan Power washer) three times with the buffer specified afore but without fluo-4 AM and BSA. This latter buffer was also used as the buffer in the subsequent cell fluorescence measurements.
The dye-loaded and washed cells were pre-incubated for approximately 5 min with various concentrations of the test compound added as a solution in DMSO (0.3% vol/vol maximum final concentration of DMSO), or with DMSO in the respective concentration only (positive control). Subsequent addition of LPA (18:1, 1-oleoyl-sn-glycerol 3-phosphate; 100 nM final concentration) leads to liberation of intracellular calcium from internal stores resulting in a large transient increase of the fluo-4 fluorescence signal which was monitored over approximately 3 min. The percent inhibition caused by the test compound was determined from the maximum fluorescence response after LPA addition to cells pre-incubated with the compound as compared to the maximum fluorescence response after LPA addition to cells pre-incubated with DMSO only. All fluorescence values were corrected for the baseline fluorescence values obtained with cells which were pre-incubated with DMSO only and were not treated with LPA (baseline control). All measurements were performed in triplicate. From the percent inhibitions the inhibitory concentration IC50 was determined.

Sequence of human Edg-2 receptor (LPA1 receptor) (Q92633 whole entry): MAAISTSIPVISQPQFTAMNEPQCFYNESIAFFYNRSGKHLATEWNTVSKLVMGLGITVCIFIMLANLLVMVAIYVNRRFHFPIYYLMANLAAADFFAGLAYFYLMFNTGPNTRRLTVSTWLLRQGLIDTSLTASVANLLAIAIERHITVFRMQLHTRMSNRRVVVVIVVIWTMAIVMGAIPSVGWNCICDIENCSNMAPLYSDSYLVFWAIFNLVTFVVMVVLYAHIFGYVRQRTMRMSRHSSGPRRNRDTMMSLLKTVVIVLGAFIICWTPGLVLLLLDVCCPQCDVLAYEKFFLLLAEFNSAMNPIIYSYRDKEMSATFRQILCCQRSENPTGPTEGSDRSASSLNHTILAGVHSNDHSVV

Compound	pIC50
COc1ccc(C(=O)NC2(C(=O)O)Cc3ccccc3C2O)cc1OCCc1cccc(C)c1 (single isomer, unassigned) [Example 220, 1-Hydroxy-2-[4-methoxy-3-(2-m-tolyl-ethoxy)-benzoylamino]-indane-2-carboxylic acid]	> 7.00
CC(=O)c1ccc(C(=O)NC2(C(=O)O)Cc3ccccc3C2)cc1OCCc1cccc(C)c1 [Example 8, 2-[4-Acetyl-3-(2-m-tolyl-ethoxy)-benzoylamino]-indane-2-carboxylic acid]	6.00 to 7.00
Cc1cccc(CCOc2cc(C(=O)NC3(C(=O)O)Cc4ccccc4C3)ccc2C(C)O)c1 (centres unmarked) [Example 9, 2-[4-(1-Hydroxy-ethyl)-3-(2-m-tolyl-ethoxy)-benzoylamino]-indane-2-carboxylic acid]	6.00 to 7.00
Cc1cccc(CCOc2cc(C(=O)NC3(C(=O)O)Cc4ccccc4C3)ccc2C(C)F)c1 (centres unmarked) [Example 11, 2-[4-(1-Fluoro-ethyl)-3-(2-m-tolyl-ethoxy)-benzoylamino]-indane-2-carboxylic acid]	> 7.00
CCOc1ccc(C(=O)NC2(C(=O)O)Cc3ccccc3C2)cc1OCCc1cccc(C)c1 [Example 12, 2-[4-Ethoxy-3-(2-m-tolyl-ethoxy)-benzoylamino]-indane-2-carboxylic acid]	> 7.00
COc1ccc(C(=O)NC2(C(=O)O)Cc3ccccc3C2)cc1OCCc1cccc(SC)c1 [Example 16, 2-{4-Methoxy-3-[2-(3-methylsulfanyl-phenyl)-ethoxy]-benzoylamino}-indane-2-carboxylic acid]	> 7.00
COc1ccc(C(=O)NC2(C(=O)O)Cc3ccccc3C2)cc1OCCc1cccc([S+](C)[O-])c1 (centres unmarked) [Example 17, 2-{3-[2-(3-Methanesulfinyl-phenyl)-ethoxy]-4-methoxy-benzoylamino}-indane-2-carboxylic acid]	4.52 to 6.00
COc1ccc(C(=O)NC2(C(=O)O)Cc3ccccc3C2)cc1OCCc1cccc(S(C)(=O)=O)c1 [Example 18, 2-{3-[2-(3-Methanesulfonyl-phenyl)-ethoxy]-4-methoxy-benzoylamino}-indane-2-carboxylic acid]	4.52 to 6.00
COc1ccc(C(=O)NC2(C(=O)O)Cc3ccccc3C2)cc1OCCc1cccc(SC(F)(F)F)c1 [Example 19]	> 7.00
COc1ccc(C(=O)NC2(C(=O)O)Cc3ccccc3C2)cc1OCCc1cc(C)ccc1F [Example 20]	> 7.00
COc1ccc(C(=O)NC2(C(=O)O)Cc3ccccc3C2)cc1OCCc1cccc(C2CC2)c1 [Example 21, 2-{3-[2-(3-cyclopropyl-phenyl)-ethoxy]-4-methoxy-benzoylamino}-indane-2-carboxylic acid]	> 7.00

The remaining lines, values ahead:

pIC50	Compound
> 7.00	Cc1cccc(CCOc2cc(C(=O)NC3(C(=O)O)Cc4ccccc4C3)ccc2Br)c1 [Example 2, 2-[4-Bromo-3-(2-m-tolyl-ethoxy)-benzoylamino]-indane-2-carboxylic acid]
> 7.00	CSc1ccc(C(=O)NC2(C(=O)O)Cc3ccccc3C2)cc1OCCc1cccc(C)c1 [Example 4, 2-[4-Methylsulfanyl-3-(2-m-tolyl-ethoxy)-benzoylamino]-indane-2-carboxylic acid]
4.52 to 6.00	Cc1cccc(CCOc2cc(C(=O)NC3(C(=O)O)Cc4ccccc4C3)ccc2[S+](C)[O-])c1 (centres unmarked) [Example 5, 2-[4-Methanesulfinyl-3-(2-m-tolyl-ethoxy)-benzoylamino]-indane-2-carboxylic acid]
4.52 to 6.00	Cc1cccc(CCOc2cc(C(=O)NC3(C(=O)O)Cc4ccccc4C3)ccc2S(C)(=O)=O)c1 [Example 6, 2-[4-Methanesulfonyl-3-(2-m-tolyl-ethoxy)-benzoylamino]-indane-2-carboxylic acid]
> 7.00	CCc1ccc(C(=O)NC2(C(=O)O)Cc3ccccc3C2)cc1OCCc1cccc(C)c1 [Example 10, 2-[4-Ethyl-3-(2-m-tolyl-ethoxy)-benzoylamino]-indane-2-carboxylic acid]
> 7.00	COc1ccc(C(=O)NC2(C(=O)O)Cc3ccccc3C2)cc1OCCc1cccc(C)c1 [Example 14, 2-[4-Methoxy-3-(2-m-tolyl-ethoxy)-benzoylamino]-indane-2-carboxylic acid]
